Activity calls are given as the source filed them.
What was measured:
Type in all cases: functional, cell-based
Calvarial osteoblast [1] = experiment: Induction of osteoblast differentiation in mouse calvarial osteoblasts assessed as increase in ALP activity at 0.000001 to 1 uM by spectrophotometric analysis; conditions: dose lower 1e-06 µM, dose upper 1.0 µM
Calvarial osteoblast [2] = experiment: Cytoprotective activity against serum deprivation-induced apoptosis in mouse calvarial osteoblasts assessed as reduction in BAX protein expression at 1 to 100 pM by western blot analysis; conditions: dose 1-100 pM
Calvarial osteoblast [3] = experiment: Induction of osteoblast differentiation in mouse calvarial osteoblasts assessed as increase in cell viability at 0.000001 to 1 uM by MTT assay; conditions: dose lower 1e-06 µM, dose upper 1.0 µM
HBMSC = experiment: Induction of new bone formation in BMSC cells (unknown origin) assessed as increase in formation of mineralized nodules at 1 to 100 pM; conditions: Homo sapiens, dose 1-100 pM
Calvarial osteoblast [4] = experiment: Induction of new bone formation in mouse calvarial osteoblasts assessed as increase in intracellular calcium level at 1 to 100 pM by Fluo-4AM dye based assay; conditions: dose 1-100 pM
Calvarial osteoblast [5] = experiment: Induction of osteoblast differentiation in mouse calvarial osteoblasts assessed as increase in Type-1 collagen mRNA expression at 1 to 100 pM after 48 hrs by qPCR analysis; conditions: dose 1-100 pM
Calvarial osteoblast [6] = experiment: Induction of osteoblast differentiation in mouse calvarial osteoblasts assessed as increase in RUNX-2 mRNA expression at 1 to 100 pM after 48 hrs by qPCR analysis; conditions: dose 1-100 pM
Calvarial osteoblast [7] = experiment: Induction of osteoblast differentiation in mouse calvarial osteoblasts assessed as increase in BMP2 mRNA expression at 1 to 100 pM after 48 hrs by qPCR analysis; conditions: dose 1-100 pM
Calvarial osteoblast [8] = experiment: Induction of osteoblast differentiation in mouse calvarial osteoblasts assessed as increase in Type-1 collagen protein expression at 1 to 100 pM after 48 hrs by western blot analysis; conditions: dose 1-100 pM
Calvarial osteoblast [9] = experiment: Induction of osteoblast differentiation in mouse calvarial osteoblasts assessed as increase in RUNX2 protein expression at 1 to 100 pM after 48 hrs by western blot analysis; conditions: dose 1-100 pM
Calvarial osteoblast [10] = experiment: Induction of osteoblast differentiation in mouse calvarial osteoblasts assessed as increase in BMP2 protein expression at 1 to 100 pM after 48 hrs by western blot analysis; conditions: dose 1-100 pM
Calvarial osteoblast [11] = experiment: Cytoprotective activity against serum deprivation-induced apoptosis in mouse calvarial osteoblasts assessed as reduction in apoptotic cells at 1 to 100 pM by Annexin/PI staining based flow cytometric analysis; conditions: dose 1-100 pM
Calvarial osteoblast [12] = experiment: Cytoprotective activity against serum deprivation-induced apoptosis in mouse calvarial osteoblasts assessed as increase in Bcl-2 protein expression at 1 to 100 pM by western blot analysis; conditions: dose 1-100 pM

Measured: Activity

CC(=O)N1N=C(c2c(O)ccc3c2OC(C)(C)C=C3)CC1c1ccc(Cl)cc1 (stereo not drawn)
active: Calvarial osteoblast [1]

CC(C)=CCC1(C)C=Cc2ccc(O)c(C(=O)/C=C/c3ccc(Cl)cc3)c2O1 (stereo not drawn)
active: Calvarial osteoblast [1]

CC1(C)C=Cc2ccc(O)c(C3=NNC(c4ccc(Cl)cc4)C3)c2O1 (stereo not drawn)
active: Calvarial osteoblast [2] | Calvarial osteoblast [1] | Calvarial osteoblast [3] | HBMSC | Calvarial osteoblast [4] | Calvarial osteoblast [5] | Calvarial osteoblast [6] | Calvarial osteoblast [7] | Calvarial osteoblast [8] | Calvarial osteoblast [9] | Calvarial osteoblast [10] | Calvarial osteoblast [11] | Calvarial osteoblast [12]

CC1(C)C=Cc2c(ccc(C3=NN(c4ccccc4)C(c4ccc(Cl)cc4)C3)c2O)O1 (stereo not drawn)
active: Calvarial osteoblast [1]

CC1(C)C=Cc2ccc(O)c(-c3cc(-c4ccc(Cl)cc4)on3)c2O1
active: Calvarial osteoblast [1]

CC1(C)C=Cc2c(ccc(C(=O)/C=C/c3ccc(Cl)cc3)c2O)O1
active: Calvarial osteoblast [1]

Reference: ChEMBL document CHEMBL5131465, “Pyrazoline analogues: Design, synthesis, and evaluation of anti-osteoporosis activity” (Bioorg Med Chem Lett, 2022)
